Results as given in patent US7414107B2, “Pharmacologically active peptide conjugates having a reduced tendency towards enzymatic hydrolysis” (priority 1998, dated 2008).

Columns and labels:
[1] = target: T1, leucine aminopeptidase (Sus scrofa, UniProt P28839); assay: Hydrolysis kinetics in leucine aminopeptidase solution; assay type: in vitro ADME, porcine; settings: 50 mM phosphate buffer pH 7.4, 37° C., leucine aminopeptidase 25 U/ml; for half-life: pig
T1 construct: purchased Sigma, UK type III-CP (catalogue number not given); host or cells: porcine kidney
T1 sequence (P28839 1-519): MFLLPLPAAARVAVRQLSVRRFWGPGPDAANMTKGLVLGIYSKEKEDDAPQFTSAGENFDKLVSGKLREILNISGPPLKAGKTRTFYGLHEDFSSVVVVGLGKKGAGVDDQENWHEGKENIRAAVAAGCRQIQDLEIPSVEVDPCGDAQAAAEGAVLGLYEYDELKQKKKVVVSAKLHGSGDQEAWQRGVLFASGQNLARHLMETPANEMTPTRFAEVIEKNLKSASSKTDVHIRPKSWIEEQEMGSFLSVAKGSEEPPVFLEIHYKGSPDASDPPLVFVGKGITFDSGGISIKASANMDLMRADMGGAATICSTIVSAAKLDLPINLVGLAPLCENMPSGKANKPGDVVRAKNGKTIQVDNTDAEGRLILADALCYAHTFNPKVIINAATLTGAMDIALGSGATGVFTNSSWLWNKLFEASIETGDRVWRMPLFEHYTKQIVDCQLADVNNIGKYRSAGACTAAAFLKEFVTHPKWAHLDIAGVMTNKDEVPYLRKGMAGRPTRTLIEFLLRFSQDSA
Procedure: (§1) Carboxypeptidase A (EC 3.4.17.1) type I from bovine pancreas, leucine aminopeptidase (EC 3.4.11.1) type III-CP from porcine kidney, α-chymotrypsin (EC […]) from bovine pancreas, and pepsin A (EC 3.4.23.1) from porcine stomach mucosa […] were obtained from Sigma, UK.
(§2) Gradient HPLC analysis of samples from in vitro kinetic measurements performed as described below was performed using a Hewlett Packard HP 1100 HPLC system consisting of a HP 1100 Binary Pump, a HPI 100 Autosampler, a HPI 100 Column Thermostat and a HP 1100 Variable Wavelength Detector. A Merck LiChroCART column (125×4 mm I.D.) and a LiChroCART precolumn (4×4 mm I.D.) packed with Lichrospher RP-18 (5 .μum particles) was used. The column was kept at 25° C. or 75° C. and the column effluent was measured by UV detection at 215 run. Separation of the peptide conjugates or the native peptides from degradation products and constituents of the reaction solutions was accomplished using gradient elution of the column with mixtures of mobile phase A (0.1 vol % TFA in water) and mobile phase B (0.085 vol % TFA in acetonitrile) at a flow rate of 1 ml/min.
(§3) The degradation of the peptide conjugate and the corresponding native peptide were studied at 37° C. in a 50 mM phosphate buffer solution at pH 7.4 containing leucine arninopeptidase (25 U/ml) or carboxypeptidase A (1 or 25 U/ml). Experiments were initiated by addition of an aliquot (100 μl) of a stock solution (1 mg/ml) of the peptide conjugate or the native peptide to 900 μl preheated enzyme solution giving a final concentration of ˜0.1 mg/ml (10^−5-10^−4M) of the peptide conjugate or the native peptide. The peptide/enzyme solution was kept at 37° C. using a SHT200D block heater from Stuart Scientific. At appropriate time intervals, samples of 100 μl were withdrawn from the peptide/enzyme solution, mixed thoroughly with 20 μl 25% TFA in acetonitrile in order to stop the enzymatic degradation process and analysed by HPLC as described above. Half-lives (t1/2) for the peptide conjugate and the corresponding native peptide in the enzyme solutions were calculated from plots of the natural logarithm to the concentration of the residual peptide (HPLC peak heights) against time using the formula t/2=1/kobs×ln(2), where kobs is the apparent first-order rate constant for the observed degradation.

[2] = target: T2, carboxypeptidase A (Bos taurus, UniProt P00730); assay: Hydrolysis kinetics in carboxypeptidase A solution; assay type: in vitro ADME, bovine; settings: 50 mM phosphate buffer pH 7.4, 37° C., carboxypeptidase A 1 U/ml
T2 construct: purchased Sigma, UK type I (catalogue number not given); host or cells: bovine pancreas
T2 sequence (P00730 111-419): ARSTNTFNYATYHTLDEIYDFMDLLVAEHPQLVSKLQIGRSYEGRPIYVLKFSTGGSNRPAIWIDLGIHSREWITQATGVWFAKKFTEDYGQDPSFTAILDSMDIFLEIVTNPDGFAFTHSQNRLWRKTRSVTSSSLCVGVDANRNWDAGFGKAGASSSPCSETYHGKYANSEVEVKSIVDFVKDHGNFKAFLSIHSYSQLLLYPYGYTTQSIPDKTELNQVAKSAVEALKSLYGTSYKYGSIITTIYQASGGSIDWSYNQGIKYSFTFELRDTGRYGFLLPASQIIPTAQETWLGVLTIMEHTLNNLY
Procedure: as §1, §2, §3

[3] = test system: osteoblast; assay: Osteoblast retraction assay; assay type: cell-based, mice; settings: for Retraction assay % Retracted cells: 10 nM, 1 h, mouse calvaria osteoblasts; for activity relative to the mother compound hPTH(1-34): Osteoblast retraction assay
Procedure: Retraction assays were performed with osteoblast prepared from calvaria of 1-day old mice according to published protocols (Miller et al., 1976, Science 192:1340-1343). In brief, osteoblasts were seeded in serum-free minimal essential medium-α (αMEM) at a density of 3000 cells per cm^2 into 96-well tissue culture plates coated with 50 μg/ml of type I collagen in phosphate-buffered saline containing 0.1% bovine serum albumin (PBS). One day after plating, PTH compounds were added to a final concentration of 10 nM and incubation was carried out for 1 h. Cells were then fixed and stained with toluidine blue, and the number of retracted cells was counted by visual inspection.

[4] = test system: PTH (1-34)-antibody; settings: EIAS(h)-6101 from Peninsula Laboratories; cited from earlier work

CC[C@H](C)[C@H](NC(=O)[C@H](CCC(=O)O)NC(=O)[C@H](CO)NC(=O)[C@@H](NC(=O)[C@@H](N)CO)C(C)C)C(=O)N[C@@H](CCC(N)=O)C(=O)N[C@@H](CC(C)C)C(=O)N[C@@H](CCSC)C(=O)N[C@@H](Cc1c[nH]cn1)C(=O)N[C@@H](CC(N)=O)C(=O)N[C@@H](CC(C)C)C(=O)NCC(=O)N[C@@H](CCCCN)C(=O)N[C@@H](Cc1c[nH]cn1)C(=O)N[C@@H](CC(C)C)C(=O)N[C@@H](CC(N)=O)C(=O)N[C@@H](CO)C(=O)N[C@@H](CCSC)C(=O)N[C@@H](CCC(=O)O)C(=O)N[C@@H](CCCNC(=N)N)C(=O)N[C@H](C(=O)N[C@@H](CCC(=O)O)C(=O)N[C@@H](Cc1c[nH]c2ccccc12)C(=O)N[C@@H](CC(C)C)C(=O)N[C@@H](CCCNC(=N)N)C(=O)N[C@@H](CCCCN)C(=O)N[C@@H](CCCCN)C(=O)N[C@@H](CC(C)C)C(=O)N[C@@H](CCC(N)=O)C(=O)N[C@@H](CC(=O)O)C(=O)N[C@H](C(=O)N[C@@H](Cc1c[nH]cn1)C(=O)N[C@@H](CC(N)=O)C(=O)N[C@@H](Cc1ccccc1)C(=O)N[C@@H](CCCCN)C(=O)N[C@@H](CCCCN)C(=O)N[C@@H](CCCCN)C(=O)N[C@@H](CCCCN)C(=O)N[C@@H](CCCCN)C(=O)N[C@@H](CCCCN)C(=O)O)C(C)C)C(C)C [PTH(1-34)(Human)-(Lys)6-OH, H-Ser-Val-Ser-Glu-Ile-Gln-Leu-Met-His-Asn-Leu-Gly-Lys -His-Leu-Asn-Ser-Met-Glu-Arg-Val-Glu-Trp-Leu-Arg-Lys-Lys-Leu-Gln-Asp-Val -His-Asn-Phe-Lys6-OH]
pseudo first-order rate constant for the degradation [1]: 0.0012 min⁻¹ | half-life [1]: 9.63 h | half-life [2]: 0.783 h | pseudo first-order rate constant for the degradation [2]: 0.015 min⁻¹ | Retraction assay % Retracted cells [3]: 37.4% | activity relative to the mother compound hPTH(1-34) [3]: 55%

hPTH(1-44): human PTH fragment listed in the EIA kit specificity (SVSEIQLMHNLGKHLNSMERVEWLRKKLQDVHNFVALGAPLAPR; Parathyroid hormone; UniProt P01270 32-75, looked up, fragment)
Specificity of the assay [4]: 0%

ratPTH(1-34): rat PTH fragment listed in the EIA kit specificity (AVSEIQLMHNLGKHLASVERMQWLRKKLQDVHNF; Parathyroid hormone; UniProt P04089 32-65, looked up, fragment)
Specificity of the assay [4]: 0%

hPTH(39-68): human PTH fragment listed in the EIA kit specificity (APLAPRDAGSQRPRKKEDNVLVESHEKSLG; Parathyroid hormone; UniProt P01270 70-99, looked up, fragment)
Specificity of the assay [4]: 0%

CC[C@H](C)[C@H](NC(=O)[C@H](CCC(=O)O)NC(=O)[C@H](CO)NC(=O)[C@@H](NC(=O)[C@H](CO)NC(=O)[C@H](CCCCN)NC(=O)[C@H](CCCCN)NC(=O)[C@H](CCCCN)NC(=O)[C@H](CCCCN)NC(=O)[C@H](CCCCN)NC(=O)[C@@H](N)CCCCN)C(C)C)C(=O)N[C@@H](CCC(N)=O)C(=O)N[C@@H](CC(C)C)C(=O)N[C@@H](CCSC)C(=O)N[C@@H](Cc1c[nH]cn1)C(=O)N[C@@H](CC(N)=O)C(=O)N[C@@H](CC(C)C)C(=O)NCC(=O)N[C@@H](CCCCN)C(=O)N[C@@H](Cc1c[nH]cn1)C(=O)N[C@@H](CC(C)C)C(=O)N[C@@H](CC(N)=O)C(=O)N[C@@H](CO)C(=O)N[C@@H](CCSC)C(=O)N[C@@H](CCC(=O)O)C(=O)N[C@@H](CCCNC(=N)N)C(=O)N[C@H](C(=O)N[C@@H](CCC(=O)O)C(=O)N[C@@H](Cc1c[nH]c2ccccc12)C(=O)N[C@@H](CC(C)C)C(=O)N[C@@H](CCCNC(=N)N)C(=O)N[C@@H](CCCCN)C(=O)N[C@@H](CCCCN)C(=O)N[C@@H](CC(C)C)C(=O)N[C@@H](CCC(N)=O)C(=O)N[C@@H](CC(=O)O)C(=O)N[C@H](C(=O)N[C@@H](Cc1c[nH]cn1)C(=O)N[C@@H](CC(N)=O)C(=O)N[C@@H](Cc1ccccc1)C(=O)O)C(C)C)C(C)C [(Lys)6-PTH(1-34)(Human)-OH, H-(Lys)6-(-Ser-Val-Ser-Glu-Ile-Gln-Leu-Met-His-Asn-Leu -Gly-Lys-His-Leu-Asn-Ser-Met-Glu-Arg-Val-Glu-Trp-Leu-Arg-Lys-Lys-Leu-Gln -Asp-Val-His-Asn-Phe-OH]
pseudo first-order rate constant for the degradation [1]: 0.0035 min⁻¹ | half-life [1]: 3.3 h | Retraction assay % Retracted cells [3]: 34.7% | activity relative to the mother compound hPTH(1-34) [3]: 49%

hPTH(1-38): human PTH fragment listed in the EIA kit specificity (SVSEIQLMHNLGKHLNSMERVEWLRKKLQDVHNFVALG; Parathyroid hormone; UniProt P01270 32-69, looked up, fragment)
Specificity of the assay [4]: 100%

B1: hPTH(1-84): full-length human PTH listed in the EIA kit specificity (protein, UniProt P01270 32-115, looked up)
Parathyroid hormone: SVSEIQLMHNLGKHLNSMERVEWLRKKLQDVHNFVALGAPLAPRDAGSQRPRKKEDNVLVESHEKSLGEADKADVNVLTKAKSQ
modifications: Parathyroid hormone
Specificity of the assay [4]: 0%
